Results on eleven molecules are retold here after patent US20240343704A1, “HALO-SUBSTITUTED AMINO PYRIDINE COMPOUNDS AS INHIBITORS OF THE HAEMATOPOIETIC PROGENITOR KINASE 1 (HPK1)” (priority 2021, published 2024).

Test [1] addresses T1, Recombinant (1-346) HPK1 (h) (Homo sapiens, UniProt Q92918).
T1 construct: Recombinant (1-346) HPK1 (h) is incubated with 8 mM MOPS pH 7.0
T1 sequence (Q92918 1-346): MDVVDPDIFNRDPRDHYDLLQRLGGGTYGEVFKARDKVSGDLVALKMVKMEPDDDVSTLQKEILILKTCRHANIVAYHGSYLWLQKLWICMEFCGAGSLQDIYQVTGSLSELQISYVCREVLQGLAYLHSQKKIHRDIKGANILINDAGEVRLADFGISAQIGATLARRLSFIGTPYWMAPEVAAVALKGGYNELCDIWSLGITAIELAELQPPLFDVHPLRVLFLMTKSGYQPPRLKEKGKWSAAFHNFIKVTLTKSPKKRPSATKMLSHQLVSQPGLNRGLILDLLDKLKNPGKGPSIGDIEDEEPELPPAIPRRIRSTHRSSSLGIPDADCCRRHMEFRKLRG
Briefly: HPK1 Human STE Kinase Enzymatic Radiometric Assay. The format is biochemical. The following applies: read-out: HPK1 IC50 nM Range*. Here is the method:
A stock solution of 10 mM of test compound is prepared in DMSO. The compound plate was prepared by 3-fold and 9-point serial dilutions. […] The reaction is initiated by The addition of the Mg/ATP mix. After incubation for 40 minutes at RT, the reaction is stopped by the addition of phosphoric acid to a concentration of 0.5%.

Another test has as its target Lck (h) (Homo sapiens, UniProt P06239). Briefly: Lck Human  Kinase Enzymatic Radiometric Assay. In kind it is biochemical. The following applies: read-out: Lck IC50 nM Range*. Here is the method: Lck (h) is incubated with 50 mM Tris pH 7.5, 0.1 mM EGTA, 0.1 mM Na3VO4, 250 uM KVEKIGEGTYGVVYK (Cdc2 peptide), 10 mM MgAcetate and [gamma-33P]-ATP (specific activity and concentration as required). The reaction is initiated by the addition of the Mg/ATP mix. After incubation for 40 minutes at RT, the reaction is stopped by the addition of phosphoric acid to a concentration of 0.5%. 10 uL of the reaction is then spotted onto a P30 filtermat and washed four times for 4 minutes in 0.425% phosphoric acid and once in methanol prior to drying and scintillation counting. For more details on the kinase assay procedures see: Gao, Y. et. al.; Biochem J., 451 (2): 313-328, 2013.

Sequence of Lck (h) (P06239 whole entry): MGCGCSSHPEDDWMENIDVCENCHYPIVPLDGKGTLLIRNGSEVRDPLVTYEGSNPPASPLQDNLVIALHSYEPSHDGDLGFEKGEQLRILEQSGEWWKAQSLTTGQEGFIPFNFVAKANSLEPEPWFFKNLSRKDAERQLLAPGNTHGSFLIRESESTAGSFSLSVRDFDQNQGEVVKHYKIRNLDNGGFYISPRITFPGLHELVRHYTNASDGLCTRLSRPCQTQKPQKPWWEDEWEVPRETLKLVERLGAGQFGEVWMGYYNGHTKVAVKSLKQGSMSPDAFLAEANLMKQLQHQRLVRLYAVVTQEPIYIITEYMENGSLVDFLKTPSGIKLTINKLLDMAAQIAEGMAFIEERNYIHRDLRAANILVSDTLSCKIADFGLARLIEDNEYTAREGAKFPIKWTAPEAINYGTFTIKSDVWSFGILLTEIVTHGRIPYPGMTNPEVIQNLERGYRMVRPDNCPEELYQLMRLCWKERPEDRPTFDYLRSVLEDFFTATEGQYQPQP

The term IC50 denotes the concentration that gives 50% inhibition. With `CC(C)N1CCc2cc(-c3cc(-c4ccc5c(c4)CCNC5=O)c(N)nc3F)ccc2C1` [I-328, 6-(2-amino-6-fluoro-5-(2-isopropyl-1,2,3,4-tetrahydroisoquinolin-6-yl)pyridin-3-yl)-3,4-dihydroisoquinolin-1(2H)-one], the half-maximal inhibitory concentration (IC50) was 11 to 100 nM in test [1] and over 1000 nM at Lck (h).
Regarding `Cc1nc2cc(-c3cc(-c4ccc(N5CCN(CCC6CC6)CC5)cc4)c(F)nc3N)cc(F)c2c(=O)[nH]1` [I-417, 7-(2-amino-5-(4-(4-(2-cyclopropylethyl)piperazin-1-yl)phenyl)-6-fluoropyridin-3-yl)-5-fluoro-2-methylquinazolin-4(3H)-one], the IC50 in test [1] is 0.1 to 10 nM; on Lck (h), over 1000 nM.
On to `Nc1nc(F)c(-c2ccc(N3CCNCC3)c(C(F)(F)F)c2)cc1-c1cc2c(cc1F)C(=O)NCC2` [I-219, 6-(2-amino-6-fluoro-5-(4-(piperazin-1-yl)-3-(trifluoromethyl)phenyl)pyridin-3-yl)-7-fluoro-3,4-dihydroisoquinolin-1(2H)-one], for which the IC50 is 0.1 to 10 nM in test [1] and over 1000 nM on Lck (h).
For the molecule `CN1CCC(c2ccc(-c3cc(-c4cc5c(cc4F)C(=O)NCC5)c(N)nc3Cl)cc2)CC1` [I-233, 6-(2-amino-6-chloro-5-(4-(1-methylpiperidin-4-yl)phenyl)pyridin-3-yl)-7-fluoro-3,4-dihydroisoquinolin-1(2H)-one], the 50% inhibitory concentration (IC50) in test [1] is 11 to 100 nM; on Lck (h), over 1000 nM.
With `C[C@H](C1CC1)N1CCN(c2ccc(-c3cc(-c4cc(F)c5c(c4)CCNC5=O)c(N)nc3F)cc2)CC1` [I-390, (R)-6-(2-amino-5-(4-(4-(1-cyclopropylethyl)piperazin-1-yl)phenyl)-6-fluoropyridin-3-yl)-8-fluoro-3,4-dihydroisoquinolin-1(2H)-one], the IC50 is 0.1 to 10 nM in test [1] and 101 to 1000 nM on Lck (h).
As to `Cc1cc(-c2cc(-c3cc4c(cc3F)C(=O)NCC4)c(N)nc2F)ccn1` [I-313, 6-(6-amino-2-fluoro-2′-methyl-[3,4′-bipyridin]-5-yl)-7-fluoro-3,4-dihydroisoquinolin-1(2H)-one], the IC50 was 11 to 100 nM in test [1] and over 1000 nM at Lck (h).
The corresponding values for `CN1CCN(c2ccc(-c3cc(-c4ccc5c(c4)CCNC5=O)c(N)nc3F)cc2C(F)(F)F)CC1` [I-68, 6-(2-amino-6-fluoro-5-(4-(4-methylpiperazin-1-yl)-3-(trifluoromethyl)phenyl)pyridin-3-yl)-3,4-dihydroisoquinolin-1(2H)-one] are 0.1 to 10 nM and over 1000 nM.
The corresponding values for `COCCN1CCc2cc(-c3cc(-c4ccc5c(c4)CCNC5=O)c(N)nc3F)ccc2C1` [I-266, 6-(2-amino-6-fluoro-5-(2-(2-methoxyethyl)-1,2,3,4-tetrahydroisoquinolin-6-yl)pyridin-3-yl)-3,4-dihydroisoquinolin-1(2H)-one] are 11 to 100 nM and over 1000 nM.
With `N#Cc1cc(-c2cc(-c3ccc4c(c3)CCNC4=O)c(N)nc2F)ccc1OC1CCN(CC(F)(F)F)CC1` [I-198, 5-(6-amino-2-fluoro-5-(1-oxo-1,2,3,4-tetrahydroisoquinolin-6-yl)pyridin-3-yl)-2-((1-(2,2,2-trifluoroethyl)piperidin-4-yl)oxy)benzonitrile], the IC50 is 11 to 100 nM in test [1] and over 1000 nM at Lck (h).
In the case of `CC(C)N1CCc2ccc(-c3cc(-c4ccc5c(c4)CCNC5=O)c(N)nc3F)cc2C1` [I-335, 6-(2-amino-6-fluoro-5-(2-isopropyl-1,2,3,4-tetrahydroisoquinolin-7-yl)pyridin-3-yl)-3,4-dihydroisoquinolin-1(2H)-one], the IC50 in test [1] is 11 to 100 nM; at Lck (h), over 1000 nM.
As to `CC(C)N1CCc2cc(-c3cc(-c4cc5c(cc4F)C(=O)NCC5)c(N)nc3F)ccc2C1` [I-299, 6-(2-amino-6-fluoro-5-(2-isopropyl-1,2,3,4-tetrahydroisoquinolin-6-yl)pyridin-3-yl)-7-fluoro-3,4-dihydroisoquinolin-1(2H)-one], the 50% inhibitory concentration (IC50) in test [1] was 0.1 to 10 nM; on Lck (h), over 1000 nM.
